# According to publication PMC5786306, “An AKAP-Lbc-RhoA interaction inhibitor promotes the translocation of aquaporin-2 to the plasma membrane of renal collecting duct principal cells” (PLoS ONE, 2018):
# Legend:
# [1] = molecular target: GST (Schistosoma japonicum, UniProt P08515); assay: ITC control with GST alone; type: binding
# Protocol: ITC measurements were essentially carried out as previously described. The stabilizing RhoA mutant F25N [41] was purified as a GST-RhoA fusion in its GDP-bound form (final gel filtration purification step in 20 mM HEPES, pH 7.5, 150 mM NaCl, 2 mM DTT, 50 μM GDP). In order to exchange GDP against GTPγS, GST-RhoA loaded with GDP was incubated for 20 min in ITC nucleotide exchange buffer (50 mM HEPES, pH 7.5, 20 mM EDTA) at 25°C followed by three dilution and concentration steps in Amicon tubes (10,000 MWCO) using ITC dialysis buffer (50 mM HEPES, pH 7.4, 150 mM NaCl, 5 mM MgCl2, 2 mM β-mercaptoethanol). The nucleotide-loading state was confirmed by HPLC. All proteins used in ITC measurements were dialyzed overnight against ITC dialysis buffer. Protein concentrations were determined with NanoDrop ND-1000. GDP or GTPγS (final concentration 2 mM) and DMSO (2%) were added to the proteins prior to the ITC measurements. Scaff10-8 was dissolved in the same buffer (including 2% DMSO and 2 mM GDP or GTPγS). ITC measurements were performed on a VP-ITC (GE Healthcare, München, DE) at 15°C. Titrations were conducted using 14.8 μM Scaff10-8 in the cell and 235 μM (GST control), 222 μM (GST-RhoA, GDP-bound) or 210 μM (GST-RhoA, GTPγS-bound) in the syringe. The cell was stirred at 351 rpm and a total of 27 x 10 μl injections were added to the cell, separated by 240 s of equilibration. […]
# [2] = system: AQP2 localization and F-actin in primary IMCD cells; assay: Immunofluorescence microscopy of AQP2 and F-actin in primary IMCD cells; type: cell-based, rat
# Description: Primary rat renal inner medullary collecting duct (IMCD) cells were obtained and cultured as previously described. AQP2 was detected with specific rabbit (H27 antibody) and secondary Cy3-coupled antibodies, and F-actin was visualized with Alexa Fluor 647-Phalloidin by laser scanning microscopy (LSM780; Zeiss Jena, Germany) as described.
# Fig 8 Scaff10-8 promotes the redistribution of AQP2 to the plasma membrane of primary IMCD cells, which is independent of cAMP elevation and associated with depolymerization of F-actin. (A) Upper panel. IMCD cells were treated with DMSO (1%; control), the solvent of Scaff10-8, or forskolin (10 μM, 30 min) to stimulate cAMP synthesis. Lower panels: The cells were treated for 1 hour with Scaff10-8 (30 μM) alone (control) or with Scaff10-8 and forskolin. Forskolin (10 μM) was added for the final 30 min of Scaff10-8 incubation. AQP2 (green) was detected with specific primary and Cy3-coupled secondary antibodies, F-actin (red) with Alexa Fluor 647-Phalloidin and nuclei with DAPI (blue). Signals were visualized using a laser scanning microscope. Representative images are shown. n = 3. The magnified views were derived from the indicated boxes. (B) The signal intensities arising from intracellular and plasma membrane AQP2 were recorded, related to nuclear signal intensities, and the ratios of plasma membrane to intracellular fluorescence signal intensities were calculated (n = 30 cells per condition). Ratios > 1 indicate a predominant localization of AQP2 at the plasma membrane. Statistically significant differences were calculated using one-way ANOVA with posthoc Bonferroni. Mean ± SEM; *, p ≤ 0.05; *** p ≤ 0.001.
# GST, sequence (P08515 whole entry, the tested form may be a part): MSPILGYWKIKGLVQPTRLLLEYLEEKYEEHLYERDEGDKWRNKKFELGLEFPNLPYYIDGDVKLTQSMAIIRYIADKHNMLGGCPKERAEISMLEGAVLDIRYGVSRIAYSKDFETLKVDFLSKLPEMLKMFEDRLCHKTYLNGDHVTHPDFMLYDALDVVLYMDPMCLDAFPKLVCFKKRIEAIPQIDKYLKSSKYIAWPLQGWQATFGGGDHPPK
structure (smiles),measurement,setting,value
"COc1ccc(-c2coc3cc4oc(=O)c(CCC(=O)O)c(C)c4cc23)cc1 [Scaff10-8, 3-[3-(4-Methoxyphenyl)-5-methyl-7-oxo-furo[3,2-g]chromen-6-yl] propanoic acid]",binding to GST control,[1],did not bind
same,effect on forskolin-induced redistribution of AQP2,"[2]; 30 μM, 1 h plus forskolin",did not enhance the forskolin-induced redistribution
same,F-actin,"[2]; Scaff10-8 30 μM alone, forskolin alone",F-actin also decreased
same,localization of AQP2,"[2]; Scaff10-8 30 μM, 1 h, no forskolin, forskolin 10 μM, 30 min",caused the translocation of AQP2 to the plasma membrane
same,effect of forskolin on F-actin,[2]; Scaff10-8 plus forskolin,did not influence
